This passage reports IC100 results from ChEMBL document CHEMBL1146082, “Development of a structural model for NF-kappaB inhibition of sesquiterpene lactones using self-organizing neural networks” (J Med Chem, 2006).

In this test the target is Transcription factor p65 (Homo sapiens) (UniProt Q04206). Description: Inhibition of NF-kappaB DNA binding by EMSA.
Transcription factor p65 (Homo sapiens), sequence (Q04206 whole entry): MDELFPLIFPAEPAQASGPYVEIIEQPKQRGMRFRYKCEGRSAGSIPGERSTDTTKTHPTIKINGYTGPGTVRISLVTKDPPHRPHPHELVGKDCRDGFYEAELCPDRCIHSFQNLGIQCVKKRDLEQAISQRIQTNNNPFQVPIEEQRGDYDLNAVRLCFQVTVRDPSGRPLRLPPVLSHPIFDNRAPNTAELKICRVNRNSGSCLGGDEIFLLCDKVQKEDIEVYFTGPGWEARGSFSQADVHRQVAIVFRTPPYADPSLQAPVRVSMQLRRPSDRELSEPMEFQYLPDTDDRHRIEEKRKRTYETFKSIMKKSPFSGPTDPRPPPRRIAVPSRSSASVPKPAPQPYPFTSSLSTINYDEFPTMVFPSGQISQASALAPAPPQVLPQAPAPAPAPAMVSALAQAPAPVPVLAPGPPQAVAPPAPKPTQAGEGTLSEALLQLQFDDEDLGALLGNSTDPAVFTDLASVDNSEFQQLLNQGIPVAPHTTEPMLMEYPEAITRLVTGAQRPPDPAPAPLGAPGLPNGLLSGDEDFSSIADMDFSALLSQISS
For the compound `C=C1C[C@@H]2OC(=O)C(=C)[C@H]2[C@H](O)/C=C(\C)CCC1=O`, the IC100 stood at 50 µM.

Compound `C=C1C(=O)O[C@H]2[C@H]1[C@@H](OC(=O)/C(C)=C/C)C/C(C)=C\[C@@]1(OC)C=C(C)[C@@H]2O1` came in with an IC100 of 10 µM.

Compound `C=C1C(=O)O[C@H]2C/C(CO)=C/CC/C(COC(=O)C(C)C)=C/C[C@H]12` registered an IC100 of 50 µM.

The compound `C=C(C)C(=O)O[C@@H]1C[C@@](C)(O)[C@@H]2C(=O)C=C(C)[C@@H]2[C@H]2OC(=O)C(=C)[C@@H]21` displayed an IC100 of 20 µM.

On to `C=C(C)C(=O)OC/C1=C\C[C@@H]2C(=C)C(=O)O[C@H]2C/C(CO)=C/CC1`, for which the IC100 is 50 µM.

In the case of `C=C1C(=O)O[C@@H]2C[C@@H](C)[C@@H]3[C@H](OCC)CC(=O)[C@@]3(C)[C@H](OC(C)=O)[C@H]12`, the IC100 turned out to be 50 µM.

`C=C1C(=O)C=C2[C@H]1C[C@@H]1C(=C)C(=O)O[C@@H]1C[C@@H]2C` had an IC100 of 10 µM.

Take `C=C1C(=O)O[C@@H]2/C=C(/C)[C@]3(O)O[C@](C)(C[C@@H](OC(=O)/C(C)=C\C)[C@@H]12)C[C@@H]3O`: the IC100 amounted to 50 µM.

In turn, `C=C1C(=O)O[C@@H]2/C=C(/C)C3=CC(=O)[C@@](C)(C[C@@H](OC(=O)/C(C)=C/C)[C@@H]12)O3` yielded an IC100 of 5 µM.

Turning to `C=C1C(=O)O[C@H]2C[C@H](C)C3=C(C[C@H]12)[C@@H](C)CC3=O`, the IC100 was found to be 20 µM.

With `C=C1[C@@H]2[C@H]3OC(=O)C(=C)[C@@H]3CC[C@](C)(O)[C@@H]2C[C@@H]1O`, the IC100 stood at 200 µM.

Take `C=C1C(=O)O[C@@H]2/C=C(/CO)[C@@]3(O)CC[C@@](C)(C[C@@H](OC(=O)/C(C)=C\C)[C@@H]12)O3`: the IC100 is 20 µM.

Compound `C=C1C(=O)O[C@@H]2[C@H]3C(C)=CC[C@@H](O)[C@]3(C)CC[C@@H]12` had an IC100 of 100 µM.

Regarding `C=C1C(=O)O[C@@H]2[C@H]3C(C)=CC(=O)C3=C(C)C[C@@H](OC(=O)[C@]3(C)O[C@@H]3C)[C@@H]12`, the IC100 is 20 µM.

The compound `C=C(C)C(=O)O[C@@H]1/C=C(\C=O)CCC[C@@]2(CO2)[C@H](O)[C@H]2OC(=O)C(=C)[C@@H]21` registered an IC100 of 5 µM.

Consider `C=C1[C@H](O)C[C@H](O)[C@]2(C)CC[C@H]3C(=C)C(=O)O[C@@H]3[C@@H]12`, for which the IC100 was 100 µM.

With `C=C(C)C(=O)O[C@H]1[C@@H]2[C@H](C)C(=O)O[C@@H]2C[C@@H](C)[C@@H]2C=CC(=O)[C@]21C`, the IC100 is 100 µM.

With `C=C1C(=O)O[C@@H]2/C=C(\C)CC/C=C(/C)CC[C@@]12O`, the IC100 turned out to be 10 µM.

On to `C=C(C)C(=O)O[C@H]1C[C@@]2(C)OC(=CC2=O)C(=C)[C@@H](O)[C@H]2OC(=O)C(=C)[C@@H]21`, for which the IC100 stood at 10 µM.

With `C=C1C(=O)O[C@H]2[C@H]1[C@H](OC(=O)/C(C)=C\C)C[C@@]1(C)OC(=CC1=O)C(=C)[C@@H]2O`, the IC100 came to 10 µM.

In turn, `C=C1C(=O)O[C@]23C[C@H]1CCC(CO)=C2C(=O)C=C3C` showed an IC100 of 50 µM.

In the case of `C=C1[C@@H]2[C@H]3OC(=O)C(=C)[C@@H]3CCC(=C)[C@@H]2C[C@@H]1OC(=O)C=C(C)C`, the IC100 turned out to be 200 µM.

In turn, `C=C1C(=O)O[C@@H]2/C=C(/C)C3=CC(=O)[C@@](C)(C[C@@H](OC(=O)/C(C)=C\C)[C@@H]12)O3` came in with an IC100 of 5 µM.

For the compound `C=C(C)C(=O)O[C@@H]1C[C@]2(C)CC[C@@](O)(O2)/C(C)=C\[C@H]2OC(=O)C(=C)[C@@H]21`, the IC100 worked out at 50 µM.

The compound `C=C1C(=O)O[C@@H]2[C@H]3C(C)=CC[C@H](O)[C@]3(C)CC[C@@H]12` came in with an IC100 of 300 µM.

As for `C=C1C(=O)O[C@@H]2/C=C(\C)CC/C=C(\C)[C@@H](OC(C)=O)C[C@@H]12`, the IC100 amounted to 200 µM.

`C=C1C(=O)O[C@H]2C3=C(C(=O)C[C@@H]3C)[C@@H](C)CC[C@@H]12`: the IC100 worked out at 20 µM.

In turn, `C=C1C(=O)O[C@H]2C/C(CO)=C/CC/C(COC(=O)C3(C)CO3)=C/C[C@H]12` (some centres undefined) came in with an IC100 of 50 µM.

Turning to `C=C1C(=O)O[C@@H]2C[C@@H](C)[C@@H]3C=CC(=O)[C@@]3(C)[C@@H](OC(=O)C(C)C)[C@H]12`, the IC100 turned out to be 20 µM.
